# HELM strings list units from the 5' end as sugar, base in round brackets, then linkage (d deoxyribose, r ribose, m 2'-O-methyl, p phosphodiester). Strings are as the collection lists them, not checked against the first reports. ss, as = sense and antisense strand; [lna] = locked nucleic acid (LNA); [hna] = hexitol nucleic acid; [fl2r] = 2'-fluoro
# Settings: siRNA
# Note: test system not given here.
row,Substance,target mRNA knockdown [%]
1,RNA1{r(G)p.r(A)p.r(C)p.r(G)p.[hna](U)p.r(A)p.r(A)p.[hna](A)p.r(C)p.r(G)p.[hna](G)p.r(C)p.r(C)p.[hna](A)p.r(C)p.r(A)p.r(A)p.r(G)p.r(U)p.r(U)p.d(T)}|RNA2{r(A)p.[hna](C)p.r(U)p.r(U)p.r(G)p.r(U)p.r(G)p.r(G)p.[hna](C)p.r(C)p.r(G)p.r(U)p.r(U)p.r(U)p.r(A)p.r(C)p.r(G)p.[hna](U)p.[hna](C)p.[hna](G)p.d(T)}$$$RNA1{StrandType:ss}|RNA2{StrandType:as}$,0
2,RNA1{r(G)p.r(A)p.r(C)p.r(G)p.[hna](U)p.r(A)p.r(A)p.[hna](A)p.r(C)p.r(G)p.[hna](G)p.r(C)p.r(C)p.[hna](A)p.r(C)p.r(A)p.r(A)p.r(G)p.r(U)p.r(U)p.d(T)}|RNA2{r(A)p.r(C)p.[lna](T)p.r(U)p.r(G)p.[lna](T)p.r(G)p.r(G)p.r(C)p.r(C)p.r(G)p.r(U)p.r(U)p.[lna](T)p.r(A)p.r(C)p.r(G)p.[lna](T)p.r(C)p.[lna](G)p.[lna](C)}$$$RNA1{StrandType:ss}|RNA2{StrandType:as}$,8.9
3,RNA1{r(G)p.r(A)p.r(C)p.r(G)p.[hna](U)p.r(A)p.r(A)p.[hna](A)p.r(C)p.r(G)p.[hna](G)p.r(C)p.r(C)p.[hna](A)p.r(C)p.r(A)p.r(A)p.r(G)p.r(U)p.r(U)p.d(T)}|RNA2{r(A)p.r(C)p.r(U)p.r(U)p.r(G)p.r(U)p.r(G)p.r(G)p.r(C)p.r(C)p.r(G)p.r(U)p.r(U)p.r(U)p.r(A)p.r(C)p.r(G)p.r(U)p.[lna](C)p.[lna](G)p.r(C)}$$$RNA1{StrandType:ss}|RNA2{StrandType:as}$,77.3
4,RNA1{r(G)p.r(A)p.r(C)p.r(G)p.[hna](U)p.r(A)p.r(A)p.[hna](A)p.r(C)p.r(G)p.[hna](G)p.r(C)p.r(C)p.[hna](A)p.r(C)p.r(A)p.r(A)p.r(G)p.r(U)p.r(U)p.d(T)}|RNA2{r(A)p.r(C)p.r(U)p.r(U)p.r(G)p.r(U)p.r(G)p.r(G)p.r(C)p.r(C)p.r(G)p.r(U)p.r(U)p.r(U)p.r(A)p.r(C)p.r(G)p.r(U)p.r(C)p.r(G)p.r(C)}$$$RNA1{StrandType:ss}|RNA2{StrandType:as}$,81.2
5,RNA1{r(G)p.r(A)p.r(C)p.r(G)p.r(U)p.r(A)p.r(A)p.r(A)p.r(C)p.r(G)p.r(G)p.r(C)p.r(C)p.r(A)p.r(C)p.r(A)p.r(A)p.r(G)p.[hna](U)p.[hna](U)p.r(C)}|RNA2{[fl2r](A)p.m(C)p.[fl2r](U)p.m(U)p.[fl2r](G)p.m(U)p.[fl2r](G)p.m(G)p.[fl2r](C)p.m(C)p.[fl2r](G)p.m(U)p.[fl2r](U)p.m(U)p.[fl2r](A)p.m(C)p.[fl2r](G)p.m(U)p.[fl2r](C)p.m(G)p.[fl2r](C)}$$$RNA1{StrandType:ss}|RNA2{StrandType:as}$,45.8
6,RNA1{r(G)p.r(A)p.r(C)p.r(G)p.r(U)p.r(A)p.r(A)p.r(A)p.r(C)p.r(G)p.r(G)p.r(C)p.r(C)p.r(A)p.r(C)p.r(A)p.r(A)p.r(G)p.[hna](U)p.[hna](U)p.r(C)}|RNA2{r(A)p.m(C)p.r(U)p.r(U)p.r(G)p.r(U)p.r(G)p.r(G)p.r(C)p.r(C)p.r(G)p.r(U)p.r(U)p.r(U)p.r(A)p.r(C)p.r(G)p.r(U)p.r(C)p.r(G)p.r(C)}$$$RNA1{StrandType:ss}|RNA2{StrandType:as}$,57
7,RNA1{r(G)p.r(A)p.r(C)p.r(G)p.r(U)p.r(A)p.r(A)p.r(A)p.r(C)p.r(G)p.r(G)p.r(C)p.r(C)p.r(A)p.r(C)p.r(A)p.r(A)p.r(G)p.[hna](U)p.[hna](U)p.r(C)}|RNA2{r(A)p.r(C)p.[lna](T)p.r(U)p.r(G)p.[lna](T)p.r(G)p.r(G)p.r(C)p.r(C)p.r(G)p.r(U)p.r(U)p.[lna](T)p.r(A)p.r(C)p.r(G)p.[lna](T)p.r(C)p.[lna](G)p.[lna](C)}$$$RNA1{StrandType:ss}|RNA2{StrandType:as}$,13.3
8,RNA1{r(G)p.r(A)p.r(C)p.r(G)p.r(U)p.r(A)p.r(A)p.r(A)p.r(C)p.r(G)p.r(G)p.r(C)p.r(C)p.r(A)p.r(C)p.r(A)p.r(A)p.r(G)p.[hna](U)p.[hna](U)p.r(C)}|RNA2{r(A)p.r(C)p.r(U)p.r(U)p.r(G)p.r(U)p.r(G)p.r(G)p.r(C)p.r(C)p.r(G)p.r(U)p.r(U)p.r(U)p.r(A)p.r(C)p.r(G)p.r(U)p.[lna](C)p.[lna](G)p.r(C)}$$$RNA1{StrandType:ss}|RNA2{StrandType:as}$,83.8
9,RNA1{r(G)p.r(A)p.r(C)p.r(G)p.r(U)p.r(A)p.r(A)p.r(A)p.r(C)p.r(G)p.r(G)p.r(C)p.r(C)p.r(A)p.r(C)p.r(A)p.r(A)p.r(G)p.[hna](U)p.[hna](U)p.r(C)}|RNA2{r(A)p.r(C)p.r(U)p.r(U)p.r(G)p.r(U)p.r(G)p.r(G)p.r(C)p.r(C)p.r(G)p.r(U)p.r(U)p.r(U)p.r(A)p.r(C)p.r(G)p.r(U)p.r(C)p.r(G)p.r(C)}$$$RNA1{StrandType:ss}|RNA2{StrandType:as}$,88.7
10,RNA1{r(G)p.r(A)p.r(C)p.r(G)p.r(U)p.r(A)p.r(A)p.r(A)p.r(C)p.r(G)p.r(G)p.r(C)p.r(C)p.r(A)p.r(C)p.r(A)p.r(A)p.r(G)p.r(U)p.[lna](T)p.[lna](C)}|RNA2{[fl2r](A)p.m(C)p.[fl2r](U)p.m(U)p.[fl2r](G)p.m(U)p.[fl2r](G)p.m(G)p.[fl2r](C)p.m(C)p.[fl2r](G)p.m(U)p.[fl2r](U)p.m(U)p.[fl2r](A)p.m(C)p.[fl2r](G)p.m(U)p.[fl2r](C)p.m(G)p.[fl2r](C)}$$$RNA1{StrandType:ss}|RNA2{StrandType:as}$,81.2
11,RNA1{r(G)p.r(A)p.r(C)p.r(G)p.r(U)p.r(A)p.r(A)p.r(A)p.r(C)p.r(G)p.r(G)p.r(C)p.r(C)p.r(A)p.r(C)p.r(A)p.r(A)p.r(G)p.r(U)p.[lna](T)p.[lna](C)}|RNA2{r(A)p.m(C)p.r(U)p.r(U)p.r(G)p.r(U)p.r(G)p.r(G)p.r(C)p.r(C)p.r(G)p.r(U)p.r(U)p.r(U)p.r(A)p.r(C)p.r(G)p.r(U)p.r(C)p.r(G)p.r(C)}$$$RNA1{StrandType:ss}|RNA2{StrandType:as}$,81
12,RNA1{r(G)p.r(A)p.r(C)p.r(G)p.r(U)p.r(A)p.r(A)p.r(A)p.r(C)p.r(G)p.r(G)p.r(C)p.r(C)p.r(A)p.r(C)p.r(A)p.r(A)p.r(G)p.r(U)p.[lna](T)p.[lna](C)}|RNA2{r(A)p.r(C)p.[lna](T)p.r(U)p.r(G)p.[lna](T)p.r(G)p.r(G)p.r(C)p.r(C)p.r(G)p.r(U)p.r(U)p.[lna](T)p.r(A)p.r(C)p.r(G)p.[lna](T)p.r(C)p.[lna](G)p.[lna](C)}$$$RNA1{StrandType:ss}|RNA2{StrandType:as}$,3
13,RNA1{r(G)p.r(A)p.r(C)p.r(G)p.r(U)p.r(A)p.r(A)p.r(A)p.r(C)p.r(G)p.r(G)p.r(C)p.r(C)p.r(A)p.r(C)p.r(A)p.r(A)p.r(G)p.r(U)p.[lna](T)p.[lna](C)}|RNA2{r(A)p.r(C)p.r(U)p.r(U)p.r(G)p.r(U)p.r(G)p.r(G)p.r(C)p.r(C)p.r(G)p.r(U)p.r(U)p.r(U)p.r(A)p.r(C)p.r(G)p.r(U)p.[lna](C)p.[lna](G)p.r(C)}$$$RNA1{StrandType:ss}|RNA2{StrandType:as}$,86.7
14,RNA1{r(G)p.r(A)p.r(C)p.r(G)p.r(U)p.r(A)p.r(A)p.r(A)p.r(C)p.r(G)p.r(G)p.r(C)p.r(C)p.r(A)p.r(C)p.r(A)p.r(A)p.r(G)p.r(U)p.[lna](T)p.[lna](C)}|RNA2{r(A)p.r(C)p.r(U)p.r(U)p.r(G)p.r(U)p.r(G)p.r(G)p.r(C)p.r(C)p.r(G)p.r(U)p.r(U)p.r(U)p.r(A)p.r(C)p.r(G)p.r(U)p.r(C)p.r(G)p.r(C)}$$$RNA1{StrandType:ss}|RNA2{StrandType:as}$,87.4
15,RNA1{r(G)p.r(A)p.r(C)p.r(G)p.r(U)p.r(A)p.r(A)p.r(A)p.r(C)p.r(G)p.r(G)p.r(C)p.r(C)p.r(A)p.r(C)p.r(A)p.r(A)p.r(G)p.r(U)p.r(U)p.r(C)}|RNA2{[fl2r](A)p.m(C)p.[fl2r](U)p.m(U)p.[fl2r](G)p.m(U)p.[fl2r](G)p.m(G)p.[fl2r](C)p.m(C)p.[fl2r](G)p.m(U)p.[fl2r](U)p.m(U)p.[fl2r](A)p.m(C)p.[fl2r](G)p.m(U)p.[fl2r](C)p.m(G)p.[fl2r](C)}$$$RNA1{StrandType:ss}|RNA2{StrandType:as}$,73.8
16,RNA1{r(G)p.r(A)p.r(C)p.r(G)p.r(U)p.r(A)p.r(A)p.r(A)p.r(C)p.r(G)p.r(G)p.r(C)p.r(C)p.r(A)p.r(C)p.r(A)p.r(A)p.r(G)p.r(U)p.r(U)p.r(C)}|RNA2{r(A)p.m(C)p.r(U)p.r(U)p.r(G)p.r(U)p.r(G)p.r(G)p.r(C)p.r(C)p.r(G)p.r(U)p.r(U)p.r(U)p.r(A)p.r(C)p.r(G)p.r(U)p.r(C)p.r(G)p.r(C)}$$$RNA1{StrandType:ss}|RNA2{StrandType:as}$,76
17,RNA1{r(G)p.r(A)p.r(C)p.r(G)p.r(U)p.r(A)p.r(A)p.r(A)p.r(C)p.r(G)p.r(G)p.r(C)p.r(C)p.r(A)p.r(C)p.r(A)p.r(A)p.r(G)p.r(U)p.r(U)p.r(C)}|RNA2{r(A)p.r(C)p.[lna](T)p.r(U)p.r(G)p.[lna](T)p.r(G)p.r(G)p.r(C)p.r(C)p.r(G)p.r(U)p.r(U)p.[lna](T)p.r(A)p.r(C)p.r(G)p.[lna](T)p.r(C)p.[lna](G)p.[lna](C)}$$$RNA1{StrandType:ss}|RNA2{StrandType:as}$,0
18,RNA1{r(G)p.r(A)p.r(C)p.r(G)p.r(U)p.r(A)p.r(A)p.r(A)p.r(C)p.r(G)p.r(G)p.r(C)p.r(C)p.r(A)p.r(C)p.r(A)p.r(A)p.r(G)p.r(U)p.r(U)p.r(C)}|RNA2{r(A)p.r(C)p.r(U)p.r(U)p.r(G)p.r(U)p.r(G)p.r(G)p.r(C)p.r(C)p.r(G)p.r(U)p.r(U)p.r(U)p.r(A)p.r(C)p.r(G)p.r(U)p.[lna](C)p.[lna](G)p.r(C)}$$$RNA1{StrandType:ss}|RNA2{StrandType:as}$,86.3
19,RNA1{r(G)p.r(A)p.r(C)p.r(G)p.r(U)p.r(A)p.r(A)p.r(A)p.r(C)p.r(G)p.r(G)p.r(C)p.r(C)p.r(A)p.r(C)p.r(A)p.r(A)p.r(G)p.r(U)p.r(U)p.r(T)}|RNA2{r(A)p.r(C)p.r(U)p.r(U)p.r(G)p.r(U)p.r(G)p.[hna](G)p.r(C)p.r(C)p.r(G)p.r(U)p.r(U)p.[hna](U)p.r(A)p.r(C)p.r(G)p.[hna](U)p.[hna](C)p.[hna](G)p.r(T)}$$$RNA1{StrandType:ss}|RNA2{StrandType:as}$,87

# — the OligoGym collection
